Measurements reported in ChEMBL document CHEMBL4425156, “The evolution of P2X7 antagonists with a focus on CNS indications” (Bioorg Med Chem Lett, 2016).

Legend:
[1] = target: T1, P2X purinoceptor 7 (Homo sapiens, UniProt Q99572); assay: Antagonist activity at human recombinant P2X7 receptor expressed in 1321N1 cells assessed as inhibition of BzATP-induced calcium mobilization incubated for 30 mins measured after 180 seconds by calcium-4 dye based FLIPR assay; format: cell-based
T1 sequence (Q99572 whole entry): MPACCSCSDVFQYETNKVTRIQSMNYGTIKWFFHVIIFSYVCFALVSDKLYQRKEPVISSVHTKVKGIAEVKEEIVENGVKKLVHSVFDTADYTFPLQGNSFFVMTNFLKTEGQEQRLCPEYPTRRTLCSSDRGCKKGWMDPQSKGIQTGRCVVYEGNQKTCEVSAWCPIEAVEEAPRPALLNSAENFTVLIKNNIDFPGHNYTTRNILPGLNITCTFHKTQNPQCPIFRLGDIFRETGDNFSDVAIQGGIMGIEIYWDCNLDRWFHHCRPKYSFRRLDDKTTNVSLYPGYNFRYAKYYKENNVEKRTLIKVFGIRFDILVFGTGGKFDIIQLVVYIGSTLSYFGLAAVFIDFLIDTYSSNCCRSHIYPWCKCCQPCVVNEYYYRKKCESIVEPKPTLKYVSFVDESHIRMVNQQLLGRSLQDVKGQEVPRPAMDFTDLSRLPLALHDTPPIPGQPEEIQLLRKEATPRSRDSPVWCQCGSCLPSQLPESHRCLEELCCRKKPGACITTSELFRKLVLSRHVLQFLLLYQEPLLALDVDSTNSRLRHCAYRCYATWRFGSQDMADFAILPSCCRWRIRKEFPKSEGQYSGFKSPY

[2] = Fraction unbound in human plasma; format: ADME, cell-free
[3] = target: T2, P2X purinoceptor 7 (Rattus norvegicus, UniProt Q64663); assay: Antagonist activity at rat P2X7 receptor expressed in 1321N1 cells assessed as inhibition of BzATP-induced calcium mobilization incubated for 30 mins measured after 180 seconds by calcium-4 dye based FLIPR assay; format: cell-based
T2 sequence (Q64663 whole entry): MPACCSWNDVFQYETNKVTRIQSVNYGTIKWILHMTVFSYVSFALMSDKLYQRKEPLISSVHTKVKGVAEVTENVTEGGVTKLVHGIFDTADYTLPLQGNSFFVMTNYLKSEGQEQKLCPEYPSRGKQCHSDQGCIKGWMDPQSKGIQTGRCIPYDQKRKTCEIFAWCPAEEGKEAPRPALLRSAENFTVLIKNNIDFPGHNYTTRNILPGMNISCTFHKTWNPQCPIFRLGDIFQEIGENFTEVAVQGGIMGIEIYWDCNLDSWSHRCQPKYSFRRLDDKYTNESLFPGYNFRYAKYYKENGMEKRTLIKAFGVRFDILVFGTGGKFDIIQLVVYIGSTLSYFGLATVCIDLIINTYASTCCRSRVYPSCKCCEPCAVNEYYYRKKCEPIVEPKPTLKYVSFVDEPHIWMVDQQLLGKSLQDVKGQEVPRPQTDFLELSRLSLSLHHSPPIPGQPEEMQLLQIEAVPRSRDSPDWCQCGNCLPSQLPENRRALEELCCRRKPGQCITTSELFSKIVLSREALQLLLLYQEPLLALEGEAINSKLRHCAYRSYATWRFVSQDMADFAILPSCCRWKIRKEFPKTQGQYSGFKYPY

[4] = Fraction unbound in rat plasma; format: ADME, cell-free
[5] = target: Cytochrome P450 3A4 (Homo sapiens, UniProt P08684); assay: Inhibition of CYP3A4 (unknown origin); format: ADME
Chain of Cytochrome P450 3A4 (P08684 whole entry): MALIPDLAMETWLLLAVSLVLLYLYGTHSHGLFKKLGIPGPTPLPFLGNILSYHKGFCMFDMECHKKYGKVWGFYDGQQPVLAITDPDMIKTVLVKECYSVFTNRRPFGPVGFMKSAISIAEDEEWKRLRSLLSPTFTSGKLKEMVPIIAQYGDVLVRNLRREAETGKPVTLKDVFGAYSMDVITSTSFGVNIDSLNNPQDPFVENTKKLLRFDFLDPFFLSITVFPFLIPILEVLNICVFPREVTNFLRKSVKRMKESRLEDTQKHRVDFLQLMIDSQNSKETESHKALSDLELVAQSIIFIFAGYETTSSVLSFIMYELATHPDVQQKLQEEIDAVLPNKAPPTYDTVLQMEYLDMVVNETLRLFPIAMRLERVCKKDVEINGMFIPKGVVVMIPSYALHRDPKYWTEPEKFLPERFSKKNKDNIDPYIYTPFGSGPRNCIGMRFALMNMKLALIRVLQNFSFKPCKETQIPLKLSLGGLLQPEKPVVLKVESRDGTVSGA

[6] = system: Rattus norvegicus; assay: Ex vivo inhibition of P2X7 in po dosed rat measured after 1 to 2 hrs by ARG assay; format: functional, organism-based
[7] = Cmax in dog at 2.5 mg/kg, po; format: ADME, organism-based, Canis lupus familiaris; parameters: dose 2.5 mg/kg, route oral; settings: in vivo
[8] = Oral bioavailability in dog at 2.5 mg/kg; format: ADME, organism-based, Canis lupus familiaris; settings: in vivo
[9] = target: T1, P2X purinoceptor 7; assay: Antagonist activity at human P2X7 receptor expressed in HEK293 cells assessed as inhibition of BzATP-induced calcium mobilization monitored for 5 mins followed by stimulation with BzATP measured after 3 mins by Fluo-8 NW dye based tetra FLIPR assay; format: cell-based
[10] = Efflux ratio of apparent permeability from basolateral to apical over apical to basolateral side in human Caco2 cells at 10 uM after 40 to 60 mins by LC-MS/MS analysis; format: ADME, cell-based; settings: Caco-2
[11] = Oral bioavailability in rat at 10 mg/kg; format: ADME, organism-based; settings: in vivo
[12] = Ratio of drug level in brain to plasma in rat at 10 mg/kg, po; format: ADME, organism-based; settings: read-out: BPR
[13] = system: Rattus norvegicus; assay: Ex vivo receptor occupancy at P2X7 receptor in rat at 10 mg/kg, po; format: functional
[14] = target: T1, P2X purinoceptor 7; assay: Antagonist activity at human recombinant P2X7 receptor expressed in HEK293 cells assessed as inhibition of ATP-induced calcium mobilization incubated for 90 mins in presence of ATP by YO-PRO-1 dye based tetra FLIPR assay; format: cell-based
[15] = target: T1, P2X purinoceptor 7; assay: Antagonist activity at human P2X7 receptor expressed in HEK293 cells assessed as inhibition of BzATP-induced calcium mobilization incubated for 30 mins by Fluo-4 NW dye based tetra FLIPR assay; format: cell-based
[16] = target: T1, P2X purinoceptor 7; assay: Antagonist activity at human P2X7 receptor expressed in THP1 cells assessed as inhibition of BzATP-induced IL-1beta release preincubated for 20 mins followed by stimulation with BzATP for 30 mins by sandwich ELISA; format: cell-based
[17] = target: T1, P2X purinoceptor 7; assay: Antagonist activity at human P2X7 receptor expressed in HEK293 cells assessed as inhibition of BzATP-induced pore formation incubated for 20 mins followed by stimulation with BzATP for 30 mins by YO-PRO dye based fluorescence plate reader method; format: cell-based

Row | SMILES | IC50 [1] [nM] | IC50 [3] [nM] | efflux ratio at 10 µM [10] | other results
1 | Cc1nc2c(c(-c3ccn[nH]3)n1)C[C@@H](C)N(C(=O)c1cccc(C(F)(F)F)c1Cl)C2 | – | – | – | IC50 [5]: 3300 nM; EC50 [6]: 8 nM; Cmax [7]: 571 nM; bioavailability [8]: 35%
2 | Cc1nc2c(c(-c3ccn[nH]3)n1)C[C@@H](C)N(C(=O)c1ccc(Cl)cc1F)C2 | 19 | – | – | IC50 [5]: > 10000 nM; EC50 [6]: 100 nM
3 | O=C(NCC(CC1(C(F)F)CC1)c1ccc(C2CC2)nc1)c1cccc(Cl)c1Cl (stereo not drawn) | – | – | – | IC50 [9]: 0.79 nM
4 | O=C(NCC1(c2ccc(Cl)nc2)CCCCC1)c1c(Cl)ccc2[nH]ccc12 | – | – | – | IC50 [14]: 3.2 nM
5 | Cc1ncc(C(CNC(=O)c2cc(-c3ncc(F)cn3)ccc2Cl)N2CCCC(F)(F)C2)s1 (stereo not drawn) | – | – | – | IC50 [15]: 22 nM
6 | C[C@H]1CC[C@@](O)(CNC(=O)c2cc(C3CCOC3)n3cccc(Cl)c23)CC1 (stereo partly drawn) | – | – | – | IC50 [16]: < 10 nM; IC50 [17]: < 10 nM
7 | O=C(NCC(c1cnc(C(F)(F)F)nc1)N1CCOCC1)c1c(Cl)ccc2[nH]ccc12 (stereo not drawn) | – | – | – | IC50 [14]: 3.9 nM
8 | CN(C)C(=O)CCNc1ccc2c(C(=O)NCC3CCC(F)(F)CC3)c(Cl)ccc2n1 | – | – | – | IC50 [16]: < 10 nM; IC50 [17]: < 10 nM
9 | O=C(NCC1(c2ccc(Cl)nc2)CCCCC1)C1CCCc2[nH]ccc21 (stereo not drawn) | – | – | – | IC50 [14]: 3.4 nM

The next lines start with results.

Row | IC50 [1] [nM] | IC50 [3] [nM] | efflux ratio at 10 µM [10] | SMILES | other results
10 | 240 | – | – | Cc1nc2c(c(-c3ccccc3)n1)CCN(C(=O)c1cccc(C(F)(F)F)c1Cl)C2 | fraction unbound [2]: 0.032
11 | 8.5 | 1140 | – | Cc1nc2c(c(-c3ccn[nH]3)n1)CCN(C(=O)c1cccc(C(F)(F)F)c1Cl)C2 | fraction unbound [4]: 0.074
12 | 8.7 | 42 | 0.75 | O=C(c1cccc(C(F)(F)F)c1Cl)N1CCn2c(nnc2C(F)(F)F)[C@H]1c1ccccc1 | bioavailability [11]: 78%; Kp [12]: 0.5; Occ [13]: >80%
13 | 2.7 | 27 | 5.1 | Cc1nnc2n1CCN(C(=O)c1cccc(C(F)(F)F)c1Cl)[C@@H]2c1ccccc1 | –
14 | 8.5 | 20 | 1.22 | CCCCc1nnc2n1CCN(C(=O)c1cccc(C(F)(F)F)c1Cl)[C@@H]2c1ccccc1 | –
15 | 4.5 | 64 | 4.5 | O=C(c1cccc(C(F)(F)F)c1Cl)N1CCn2cnnc2[C@H]1c1ccccc1 | –
16 | 2.4 | – | 3.24 | CCc1nnc2n1CCN(C(=O)c1cccc(C(F)(F)F)c1Cl)[C@@H]2c1ccccc1 | –
17 | 6.9 | 17 | 3.33 | O=C(c1cccc(C(F)(F)F)c1Cl)N1CCn2c(C3CC3)nnc2[C@H]1c1ccccc1 | –
18 | 11 | – | 2 | CC(C)(C)c1nnc2n1CCN(C(=O)c1cccc(C(F)(F)F)c1Cl)[C@@H]2c1ccccc1 | –
